From patent US20200031848A1, “AR-V7 INHIBITORS” (Hoffmann-La Roche Inc., priority 2016, published 2020)

Experiments:
[1] = target: T1, AR transcriptional activity (Homo sapiens, UniProt P10275, T878A); test: eGFP cellular AR transcription assay; format: cell-based; conditions: for inhibition at 1 µM: read-out: eGFP % inhib. at 1 μM
T1 construct: The LNCaP eGFP cell line was stably transfected with an androgen-responsive probasin-derived promoter fused to an eGFP reporter; endogenous in cells; host or cells: LNCaP eGFP (LN-ARR2PB-eGFP) human prostate cancer cells
T1 sequence (P10275 1-920 T878A): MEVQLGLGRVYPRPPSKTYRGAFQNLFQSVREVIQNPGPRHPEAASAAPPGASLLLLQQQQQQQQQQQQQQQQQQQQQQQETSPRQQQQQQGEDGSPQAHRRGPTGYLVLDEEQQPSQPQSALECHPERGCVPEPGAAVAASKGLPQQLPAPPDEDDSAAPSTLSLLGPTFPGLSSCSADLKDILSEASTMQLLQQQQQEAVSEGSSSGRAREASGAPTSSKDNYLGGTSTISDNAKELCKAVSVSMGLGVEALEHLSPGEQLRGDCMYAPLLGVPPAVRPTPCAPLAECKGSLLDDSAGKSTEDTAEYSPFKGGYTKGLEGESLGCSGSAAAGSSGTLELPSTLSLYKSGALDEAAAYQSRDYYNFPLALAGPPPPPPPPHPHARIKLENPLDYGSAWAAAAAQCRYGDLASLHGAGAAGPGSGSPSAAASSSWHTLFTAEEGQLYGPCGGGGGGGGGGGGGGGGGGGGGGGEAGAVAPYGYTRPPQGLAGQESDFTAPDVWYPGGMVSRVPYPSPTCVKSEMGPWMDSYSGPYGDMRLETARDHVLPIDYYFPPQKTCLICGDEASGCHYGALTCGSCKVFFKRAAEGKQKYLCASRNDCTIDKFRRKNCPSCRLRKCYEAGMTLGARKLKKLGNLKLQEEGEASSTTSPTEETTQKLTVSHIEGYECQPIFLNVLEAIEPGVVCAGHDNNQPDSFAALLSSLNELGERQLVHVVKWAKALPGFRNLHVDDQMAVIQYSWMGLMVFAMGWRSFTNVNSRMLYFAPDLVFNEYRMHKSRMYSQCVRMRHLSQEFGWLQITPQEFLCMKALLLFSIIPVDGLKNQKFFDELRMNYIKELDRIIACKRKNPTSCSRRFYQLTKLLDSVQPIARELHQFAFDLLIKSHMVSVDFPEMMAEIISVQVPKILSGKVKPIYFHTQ
Excerpt: The DNA-binding domain is an attractive target for inhibition of AR dimerization and/or DNA binding. In silico computational drug discovery methods were used to conduct a virtual screen of >3 million purchasable lead-like compounds from the ZINC database (Irwin, J. et al.^11) to identify potential DBD binders. The in silico methods included large-scale docking, in-site rescoring and consensus voting procedures. It will be understood by a person of skill that COOH and NR2 may include the corresponding ions, for example carboxylate ions and ammonium ions, respectively. Alternatively, where the ions are shown, a person of skill in the art will appreciate that the counter ion may also be present. Furthermore, it will be appreciated by a person of skill that other moieties may include the corresponding ions, and where the ions are shown, a person of skill in the art will appreciate that the counter ion may also be present. […] Where the % inhibition, eGFP IC50 or the PSA IC50 has no value given, this may be because no measurement was taken or the value was not calculated, in the case of the % inhibition. In vitro identification of AR inhibitors targeting AR DBD The selected compounds were assessed with a non-destructive eGFP assay that quantifies levels of AR transcriptional activity, were identified (table below).
1. Cell Culture: LNCaP and PC3 human prostate cancer cells were obtained from American Type Culture Collection (ATCC, Manassas, Va.) and grown in RPMI 1640 medium supplemented with 5% fetal bovine serum (FBS) (Invitrogen). The LNCaP eGFP cell line was stably transfected with an androgen-responsive probasin-derived promoter fused to an eGFP reporter (LN-ARR2PB-eGFP) using a lentiviral approach, and were grown in phenol-red-free RPMI 1640 supplemented with 5% CSS. In-house developed MDV3100-resistant LNCaP cells were cultured in RPMI 1640 supplemented with 5% FBS and 10 μM MDV3100. All cells were maintained at 37° C. in 5% CO2.
2. eGFP cellular AR transcription assay: The AR transcriptional activity was assayed as previously described (Tavassoli, P., et al.^12).

in vitro = conditions: human, microsomes; for microsomal CLint at 2 μM: pH 7.4
Protocol: Microsomal incubations were carried out in 96-well plates in 5 aliquots of 40 μL each (one for each time point). […] Control incubations were performed replacing the NADPH-cofactor system with PBS. […] Incubations were performed in duplicates. Five time points over 40 minutes had been analyzed. The reactions were stopped by adding 12 volumes of 90% acetonitrile-water to incubation aliquots, followed by protein sedimentation by centrifuging at 5500 rpm for 5 minutes. Supernatants were analyzed using the HPLC system coupled with tandem mass spectrometer. The elimination constant (kel), half-life (t1/2) and intrinsic clearance (Clint) were determined in plot of […] versus time, using linear regression analysis: […]

Row | SMILES | IC50 ([1]; LNCaP eGFP cell line) | microsomal CLint at 2 μM (in vitro) | other results
1 | Brc1cn(-c2csc(N3C[C@@H]4C[C@H]3CO4)n2)c(Br)n1 [Example 11, (1S,4S)-5-[4-(2,4-dibromoimidazol-1-yl)thiazol-2-yl]-2-oxa-5-azabicyclo[2.2.1]heptane] | 1.18 µM |  | 
2 | Brc1cn(-c2csc(N3CCOC4(CCOCC4)C3)n2)c(Br)n1 [Example 28, 4-[4-(2,4-dibromoimidazol-1-yl)thiazol-2-yl]-1,9-dioxa-4-azaspiro[5.5]undecane] | 3.12 µM |  | 
3 | Clc1ncn(-c2csc(N3C[C@H]4CC[C@@H](C3)O4)n2)c1Br [Example 21, (1R,5S)-3-[4-(5-bromo-4-chloro-imidazol-1-yl)thiazol-2-yl]-8-oxa-3-azabicyclo[3.2.1]octane] | 0.3 µM | 6 µL/min/mg | metabolic stability in human hepatic microsomal test system (in words) (in vitro): high metabolic stability
4 | Brc1cn(-c2csc(N3CCOCC3)n2)cn1 [Example 48, 4-[4-(4-bromoimidazol-1-yl)thiazol-2-yl]morpholine] |  | 81 µL/min/mg | 
5 | CC(C)(C)C1CN(c2nc(-n3cc(Br)nc3Br)cs2)CC(C(C)(C)C)O1 (centres unmarked) [Example 34, 2,6-ditert-butyl-4-[4-(2,4-dibromoimidazol-1-yl)thiazol-2-yl]morpholine] |  |  | eGFP IC50 ([1]; LNCaP eGFP cell line): inact.
6 | Brc1cn(-c2csc(N3CC4CC3CO4)n2)c(Br)n1 (centres unmarked) [Example 27, 5-[4-(2,4-dibromoimidazol-1-yl)thiazol-2-yl]-2-oxa-5-azabicyclo[2.2.1]heptane] | 1.61 µM |  | 
7 | CC1CN(c2nc(-n3cc(Br)nc3Br)cs2)CCO1 (centres unmarked) [Example 22, 4-[4-(2,4-dibromoimidazol-1-yl)thiazol-2-yl]-2-methyl-morpholine] | 0.4 µM | 52 µL/min/mg | 
8 | FC(F)(F)C1CN(c2nc(-n3cc(Br)nc3Br)cs2)CCO1 (centres unmarked) [Example 38, 4-[4-(2,4-dibromoimidazol-1-yl)thiazol-2-yl]-2-(trifluoromethyl)morpholine] | 1.95 µM | 44 µL/min/mg | 
9 | Brc1ncn(-c2csc(N3C[C@@H]4C[C@H]3CO4)n2)c1Br [Example 12, (1S,4S)-5-[4-(4,5-dibromoimidazol-1-yl)thiazol-2-yl]-2-oxa-5-azabicyclo[2.2.1]heptane] | 1.32 µM |  | 
10 | N#Cc1nc(Br)cn1-c1csc(N2CCOCC2)n1 [Example 51, 4-bromo-1-(2-morpholinothiazol-4-yl)imidazole-2-carbonitrile] | 1.6 µM |  | 
11 | Cc1ncn(-c2csc(N3CCOCC3)n2)c1Br [Example 54, 4-[4-(5-bromo-4-methyl-imidazol-1-yl)thiazol-2-yl]morpholine] |  | 224 µL/min/mg | inhibition at 1 µM [1]: 28%
12 | Clc1c(Br)ncn1-c1csc(N2CCOCC2)n1 [Example 45, 4-[4-(4-bromo-5-chloro-imidazol-1-yl)thiazol-2-yl]morpholine] |  | 185 µL/min/mg | 
13 | Brc1cn(-c2csc(N3CCOC(c4ccccc4)C3)n2)c(Br)n1 (centres unmarked) [Example 31, 4-[4-(2,4-dibromoimidazol-1-yl)thiazol-2-yl]-2-phenyl-morpholine] | 8.15 µM |  | 
14 | Clc1ncn(-c2csc(N3CCOCC3)n2)c1Br [Example 44, 4-[4-(5-bromo-4-chloro-imidazol-1-yl)thiazol-2-yl]morpholine] |  | 196 µL/min/mg | 
15 | N#Cc1cn(-c2csc(N3CCOCC3)n2)cn1 [Example 58, 1-(2-morpholinothiazol-4-yl)imidazole-4-carbonitrile] |  | 23 µL/min/mg | inhibition at 1 µM [1]: 2%
16 | CC(C)C1CN(c2nc(-n3cc(Br)nc3Br)cs2)CCO1 (centres unmarked) [Example 30, 4-[4-(2,4-dibromoimidazol-1-yl)thiazol-2-yl]-2-isopropyl-morpholine] | 6.65 µM |  | 
17 | COc1nc(Br)cn1-c1csc(N2[C@@H]3CC[C@H]2COC3)n1 [Example 23, (1S,5R)-8-[4-(4-bromo-2-methoxy-imidazol-1-yl)thiazol-2-yl]-3-oxa-8-azabicyclo[3.2.1]octane] | 0.27 µM | 22 µL/min/mg | 
18 | Brc1cn(-c2csc(N3CCOC4CCCCC43)n2)c(Br)n1 (centres unmarked) [Example 29, 4-[4-(2,4-dibromoimidazol-1-yl)thiazol-2-yl]-2,3,4a,5,6,7,8,8a-octahydrobenzo[b][1,4]oxazine] | 3.15 µM |  | 
19 | OCc1nc(Br)c(Br)n1-c1csc(N2[C@@H]3CC[C@H]2COC3)n1 [Example 36, [4,5-dibromo-1-[2-[(1R,5S)-3-oxa-8-azabicyclo[3.2.1]octan-8-yl]thiazol-4-yl]imidazol-2-yl]methanol] | 2.99 µM | 10 µL/min/mg | metabolic stability in human hepatic microsomal test system (in words) (in vitro): high metabolic stability
20 | Brc1cn(-c2csc(N3CCOC(c4cccs4)C3)n2)c(Br)n1 (centres unmarked) [Example 33, 4-[4-(2,4-dibromoimidazol-1-yl)thiazol-2-yl]-2-(2-thienyl)morpholine] | 0.17 µM |  | 
21 | Clc1cn(-c2csc(N3CCOCC3)n2)cn1 [Example 47, 4-[4-(4-chloroimidazol-1-yl)thiazol-2-yl]morpholine] | 0.97 µM |  | 
22 | Brc1cn(-c2csc(N3C[C@H]4CC[C@@H](C3)O4)n2)c(Br)n1 [Example 13, (1S,5R)-3-[4-(2,4-dibromoimidazol-1-yl)thiazol-2-yl]-8-oxa-3-azabicyclo[3.2.1]octane] | 0.11 µM |  | 
23 | Brc1cn(-c2csc(N3CCOCC3C3CC3)n2)c(Br)n1 (centres unmarked) [Example 14, 3-cyclopropyl-4-[4-(2,4-dibromoimidazol-1-yl)thiazol-2-yl]morpholine] | 0.12 µM |  | 
24 | Brc1cn(-c2csc(N3CCOC(Cc4ccccc4)C3)n2)c(Br)n1 (centres unmarked) [Example 32, 2-benzyl-4-[4-(2,4-dibromoimidazol-1-yl)thiazol-2-yl]morpholine] | 27.4 µM |  | 
25 | CSc1nc(Br)cn1-c1csc(N2[C@@H]3CC[C@H]2COC3)n1 [Example 16, (1R,5S)-8-[4-(4-bromo-2-methylsulfanyl-imidazol-1-yl)thiazol-2-yl]-3-oxa-8-azabicyclo[3.2.1]octane] | 0.14 µM |  | 
26 | Cc1ncn(-c2csc(N3CCOCC3)n2)c1C [Example 52, 4-[4-(4,5-dimethylimidazol-1-yl)thiazol-2-yl]morpholine] | 3.65 µM |  | 
27 | FC(F)(F)C1CN(c2nc(-n3cc(Br)nc3Br)cs2)CCO1 (centres unmarked) [Example 25, 4-[4-(2,4-dibromoimidazol-1-yl)thiazol-2-yl]-2-(trifluoromethyl)morpholine] | 1.7 µM |  | 
28 | Brc1ncn(-c2csc(N3CCOC4(COC4)C3)n2)c1Br [Example 65, 8-(4-(4,5-dibromo-1H-imidazol-1-yl)thiazol-2-yl)-2,5-dioxa-8-azaspiro[3.5]nonane] | 4.47 µM |  | 
29 | Brc1cn(-c2csc(N3CCOC4CCCC43)n2)c(Br)n1 (centres unmarked) [Example 26, 4-[4-(2,4-dibromoimidazol-1-yl)thiazol-2-yl]-3,4a,5,6,7,7a-hexahydro-2H-cyclopenta[b][1,4]oxazine] | 1.53 µM |  | 
